Results from ChEMBL document CHEMBL1151527, “Anti-pneumocystis activity of bis-amidoximes and bis-o-alkylamidoximes prodrugs” (1996).

Key:
Type in all cases: functional
Rattus norvegicus [1] = assay: Percent salinte-treated controls were evaluated against Pneumocystis carinii in immunosuppressed rats at a dose of 22 umol/kg/day administered by tail vein injection.
Rattus norvegicus [2] = assay: Percent salinte-treated controls were evaluated against Pneumocystis carinii in immunosuppressed rats at a dose of 33 umol/kg/day administered orally.
Rattus norvegicus [3] = assay: In vivo toxicity against Pneumocystis carinii in immunosuppressed rats at a dose of 22 umol/kg/day administered by tail vein injection.
Rattus norvegicus [4] = assay: In vivo toxicity against Pneumocystis carinii in immunosuppressed rats at a dose of 33 umol/kg/day administered orally.
Rattus norvegicus [5] = assay: In vivo toxicity against Pneumocystis carinii in immunosuppressed rats at a dose of 26.6 umol/kg/day administered by tail vein injection.
Rattus norvegicus [6] = assay: In vivo toxicity against Pneumocystis carinii in immunosuppressed rats at a dose of 66.3 umol/kg/day administered orally.
Rattus norvegicus [7] = assay: In vivo toxicity against Pneumocystis carinii in immunosuppressed rats at a dose of 0.03 umol/kg/day administered by tail vein injection.
Rattus norvegicus [8] = assay: In vivo toxicity against Pneumocystis carinii in immunosuppressed rats at a dose of 0.3 umol/kg/day administered by tail vein injection.
Rattus norvegicus [9] = assay: Percent salinte-treated controls were evaluated against Pneumocystis carinii in immunosuppressed rats at a dose of 39.8 umol/kg/day administered orally.
Rattus norvegicus [10] = assay: Percent salinte-treated controls were evaluated against Pneumocystis carinii in immunosuppressed rats at a dose of 0.3 umol/kg/day administered by tail vein injection.
Rattus norvegicus [11] = assay: In vivo toxicity against Pneumocystis carinii in immunosuppressed rats at a dose of 2.7 umol/kg/day administered by tail vein injection.
Rattus norvegicus [12] = assay: Percent salinte-treated controls were evaluated against Pneumocystis carinii in immunosuppressed rats at a dose of 2.7 umol/kg/day administered by tail vein injection.
Rattus norvegicus [13] = assay: Percent salinte-treated controls were evaluated against Pneumocystis carinii in immunosuppressed rats at a dose of 0.03 umol/kg/day administered by tail vein injection.
Rattus norvegicus [14] = assay: In vivo toxicity against Pneumocystis carinii in immunosuppressed rats at a dose of 39.8 umol/kg/day administered orally.
Rattus norvegicus [15] = assay: Percent salinte-treated controls were evaluated against Pneumocystis carinii in immunosuppressed rats at a dose of 13.3 umol/kg/day administered by tail vein injection; Not available
Rattus norvegicus [16] = assay: In vivo toxicity against Pneumocystis carinii in immunosuppressed rats at a dose of 13.3 umol/kg/day administered by tail vein injection.
Rattus norvegicus [17] = assay: Percent salinte-treated controls were evaluated against Pneumocystis carinii in immunosuppressed rats at a dose of 66.3 umol/kg/day administered orally.
Rattus norvegicus [18] = assay: In vivo toxicity against Pneumocystis carinii in immunosuppressed rats at a dose of 11 umol/kg/day administered orally.
Rattus norvegicus [19] = assay: Percent salinte-treated controls were evaluated against Pneumocystis carinii in immunosuppressed rats at a dose of 5.5 umol/kg/day administered orally.
Rattus norvegicus [20] = assay: Percent salinte-treated controls were evaluated against Pneumocystis carinii in immunosuppressed rats at a dose of 22 umol/kg/day administered orally.
Rattus norvegicus [21] = assay: In vivo toxicity against Pneumocystis carinii in immunosuppressed rats at a dose of 22 umol/kg/day administered orally.
Rattus norvegicus [22] = assay: In vivo toxicity against Pneumocystis carinii in immunosuppressed rats at a dose of 5.5 umol/kg/day administered orally.
Rattus norvegicus [23] = assay: Percent salinte-treated controls were evaluated against Pneumocystis carinii in immunosuppressed rats at a dose of 11 umol/kg/day administered orally.
Rattus norvegicus [24] = assay: Percent salinte-treated controls were evaluated against Pneumocystis carinii in immunosuppressed rats at a dose of 11 umol/kg/day administered by tail vein injection.
Rattus norvegicus [25] = assay: In vivo toxicity against Pneumocystis carinii in immunosuppressed rats at a dose of 11 umol/kg/day administered by tail vein injection.
Rattus norvegicus [26] = assay: In vivo toxicity against Pneumocystis carinii in immunosuppressed rats at a dose of 5.5 umol/kg/day administered by tail vein injection.
Rattus norvegicus [27] = assay: Percent salinte-treated controls were evaluated against Pneumocystis carinii in immunosuppressed rats at a dose of 5.5 umol/kg/day administered by tail vein injection.

CCONC(=N)c1ccc(-c2ccc(-c3ccc(C(=N)NOCC)cc3)o2)cc1
Saline control (Rattus norvegicus [1]): 104.7% | Saline control (Rattus norvegicus [2]): 121.5% | Toxicity (Rattus norvegicus [3]): 1 | Toxicity (Rattus norvegicus [4]): 0

N=C(N)c1ccc(-c2ccc(-c3ccc(C(=N)N)cc3)o2)cc1 [FURAMIDINE]
Toxicity (Rattus norvegicus [5]): 1 | Toxicity (Rattus norvegicus [6]): 0 | Toxicity (Rattus norvegicus [7]): 0 | Toxicity (Rattus norvegicus [8]): 0 | Saline control (Rattus norvegicus [9]): 42.3% | Saline control (Rattus norvegicus [10]): 6.92% | Toxicity (Rattus norvegicus [11]): 0 | Saline control (Rattus norvegicus [12]): 7.26% | Saline control (Rattus norvegicus [13]): 26.3% | Toxicity (Rattus norvegicus [14]): 0 | Saline control (Rattus norvegicus [15]): 0.79% | Toxicity (Rattus norvegicus [16]): 0 | Saline control (Rattus norvegicus [17]): 25.2%

CONC(=N)c1ccc(-c2ccc(-c3ccc(C(=N)NOC)cc3)o2)cc1 [PAFURAMIDINE]
Saline control (Rattus norvegicus [1]): 14.3% | Saline control (Rattus norvegicus [2]): 1.82% | Toxicity (Rattus norvegicus [18]): 0 | Saline control (Rattus norvegicus [19]): 264.2% | Saline control (Rattus norvegicus [20]): 12% | Toxicity (Rattus norvegicus [21]): 0 | Toxicity (Rattus norvegicus [22]): 0 | Saline control (Rattus norvegicus [23]): 34.7% | Toxicity (Rattus norvegicus [3]): 0 | Toxicity (Rattus norvegicus [4]): 0

N=C(NO)c1ccc(-c2ccc(-c3ccc(/C(N)=N\O)cc3)o2)cc1
Saline control (Rattus norvegicus [24]): 1.37% | Saline control (Rattus norvegicus [1]): 0.67% | Toxicity (Rattus norvegicus [25]): 1 | Saline control (Rattus norvegicus [2]): 3.1% | Toxicity (Rattus norvegicus [8]): 0 | Toxicity (Rattus norvegicus [18]): 0 | Saline control (Rattus norvegicus [10]): 203.6% | Saline control (Rattus norvegicus [19]): 127% | Toxicity (Rattus norvegicus [11]): 0 | Saline control (Rattus norvegicus [12]): 54.4% | Toxicity (Rattus norvegicus [26]): 1 | Toxicity (Rattus norvegicus [22]): 0 | Saline control (Rattus norvegicus [23]): 197.6% | Toxicity (Rattus norvegicus [3]): 1 | Toxicity (Rattus norvegicus [4]): 0 | Saline control (Rattus norvegicus [27]): 42.3%
